Measured values as given in patent publication US8143025B2, “Antibodies against vascular endothelial growth factor receptor-1” (ImClone LLC, priority 2004, dated 2012).

Test system: MDA-MB-435 xenograft
Assay: MDA-MB-435 breast tumor xenograft
Type: in vivo, mouse
Conditions: MDA-MB-435 model, differences did not reach statistical significance
Procedure: Athymic nude mice (Charles River Laboratories, Wilmington, Mass.) were injected subcutaneously in the left flank area with 2×10^6 of DU4475 cells or 5×10^6 of MDA-MB-231 and MDA-MB-435 cells mixed in Matrigel (Collaborative Research Biochemicals. Bedford, Mass.). In the DU4475 and MDA-MB-231 models, tumors were allowed to reach approximately 200 mm^3 in size and then mice were randomized into groups of 12-16 animals per group. Animals received i.p. administration of the anti-VEGFR-I antibody clones 6F9, 15F11, or 18F1 at a dose of 0.5 mg (MDA-MB-231) or 1 mg (DU4475) three times each week. In the MDA-MB-435 model, the tumor cells were implanted subcutaneously into mammary fat pad area in the mouse. After tumors grew to reach approximately 200 mm^3 in size, mice were randomized into groups of 15 animals per group and intraperitoneally administered with 0.5 mg per dose of 18F1 antibody three times each week. Mice in control groups received an equal volume of saline solution. Treatment of animals was continued for the duration of the experiment. Tumors were measured twice each week with calipers. Tumor volumes were calculated using the formula [π/6 (w1×w2×w2)], where “w1” represents the largest tumor diameter and “w2” represents the smallest tumor diameter. […] Tumor growth was evaluated approximately twice weekly, with tumor volume calculated as π/6* (Length*Width^2), where Length=longest diameter and Width=diameter perpendicular to Length. Tumor dimensions were measured with calipers. T/C % was calculated as 100*(Final Treatment Tumor Volume/Initial Treatment Tumor Volume)/(Final Control Tumor Volume/Initial Control Tumor Volume). […] The effect of treatment on tumor growth was analyzed using repeated measures analysis of variance (RM ANOVA), p<0.05 was considered significant. […] AU treatments were administered i.p. The effect of treatments on tumor growth were analyzed using repeated measures analysis of variance (RM ANOVA), p<0.05 was considered significant.

## O=P1(N(CCCl)CCCl)NCCCO1 (stereo not shown) [cyclophosphamide, reference compound]
  T/C %: 65%
